Data on one compound can be found in publication PMC6804443 (Acta Pharmaceutica Sinica. B, 2019).

The format of data set [1] is in vivo. Particulars: human; XueBiJing at label dose 100 mL.
The next data set deals with T1, OAT3 (Homo sapiens, UniProt Q8TCC7).
T1 sequence (Q8TCC7 1-542): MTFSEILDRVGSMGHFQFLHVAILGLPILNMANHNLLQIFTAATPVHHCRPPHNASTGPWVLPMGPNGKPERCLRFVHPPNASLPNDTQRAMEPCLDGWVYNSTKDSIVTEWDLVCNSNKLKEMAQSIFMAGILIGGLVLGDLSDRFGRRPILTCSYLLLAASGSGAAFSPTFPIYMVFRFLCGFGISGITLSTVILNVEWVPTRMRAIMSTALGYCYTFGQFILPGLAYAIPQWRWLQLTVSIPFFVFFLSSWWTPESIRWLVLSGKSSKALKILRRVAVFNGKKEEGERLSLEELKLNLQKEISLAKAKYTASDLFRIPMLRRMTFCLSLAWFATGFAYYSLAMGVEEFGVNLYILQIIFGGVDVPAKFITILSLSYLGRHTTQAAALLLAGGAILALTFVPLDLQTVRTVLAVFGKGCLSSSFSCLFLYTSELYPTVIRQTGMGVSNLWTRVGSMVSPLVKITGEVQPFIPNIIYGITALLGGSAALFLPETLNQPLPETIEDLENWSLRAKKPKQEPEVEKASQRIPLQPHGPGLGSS
The format is in vitro ADME.

Data set [2] concerns human drug metabolizing enzymes and transporters. Nature of the data set: Inhibitory DDI index of XueBiJing compounds as perpetrators. The note with it: XueBiJing at label dose; range over the named compounds.
The conditions of data set [3]: cited from earlier work.
The next data set deals with CYP1A2. The note with it: higher concentrations; range over the named compounds and enzymes.
In a further data set the test system is CYP3A4. The note with it: higher concentrations; range over the named compounds and enzymes.
For data set [4] the following is noted: XueBiJing compounds, cited from earlier work.
The conditions of data set [5]: ref Supporting Information Table S2; cited from earlier work.
For data set [6] the following is noted: XueBiJing compounds; cited from earlier work.
Setting [7] is: human, XueBiJing 100 mL via 75-min intravenous infusion.

In general, IC50 refers to the concentration that gives 50% inhibition. A lower IC50 goes with greater potency. The Cmax is the highest concentration seen after dosing. The pKa is the negative logarithm of the acid dissociation constant.

Take `O=C(O)c1ccc(O)c(O)c1` [X11, protocatechuic acid]: in [1], the “Unbound Cmax” value is 0.03 µmol/L. Besides, at OAT3, the IC50 was 28 ± 7 µM. Moreover, the “DDI index for inhibition of CYP2C9, CYP2C19, OATP1B1, OATP1B3, OAT1 and/or OAT3” value in data set [2] is 0.00003–0.06. Also, in data set [3] (human plasma), the “fu-p (unbound fraction in plasma)” value was 79%. In [3] (setting [7]), the Cmax was 40 nM and the t1/2 was 30 min. In addition, in [3] (human), the Major elimination route entry is “Hepatic methylation and sulfation”. Besides, the “mRNA-T/U ratio, CYP1A2” value in the data set with CYP1A2 fell in the range of 4.0 to 9.6. Besides, the “mRNA-T/U ratio, CYP3A4” value with CYP3A4 fell in the range of 4.0 to 9.6. Besides, the pKa in data set [4] was 4.5. The “LogD(7.4)” value in data set [4] (pH 7.4) is given as −1.9. In addition, in [5], the “Effective concentration(s)” value is 1 to 130 µmol/L. The Membrane permeability entry in data set [6] was “Intermediate”.
